From patent publication US20190194148A1, “TETRAZOLE-CONTAINING 1,2-CYCLOPROPANE-CARBOXAMIDES” (Bayer Pharma Aktiengesellschaft, priority 2017, published 2019)
Where two headings read alike, the source gives them in different places.

Target: T1, human B1 receptor (Homo sapiens, UniProt P46663)
T1 construct: host or cells: CHO-K1
T1 sequence (P46663 1-353): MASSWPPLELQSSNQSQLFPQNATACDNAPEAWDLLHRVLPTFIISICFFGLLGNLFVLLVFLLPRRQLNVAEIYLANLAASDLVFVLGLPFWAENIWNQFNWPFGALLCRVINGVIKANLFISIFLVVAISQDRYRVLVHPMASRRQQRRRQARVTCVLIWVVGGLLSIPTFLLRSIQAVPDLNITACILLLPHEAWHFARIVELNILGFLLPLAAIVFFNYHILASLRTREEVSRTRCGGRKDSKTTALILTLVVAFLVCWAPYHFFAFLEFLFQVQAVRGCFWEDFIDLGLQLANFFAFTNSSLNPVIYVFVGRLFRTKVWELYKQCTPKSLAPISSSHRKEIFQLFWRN
Assay: Calcium flux assay (FLIPR) with recombinant CHO-K1 cells expressing human B1 receptor
Type: cell-based
Protocol: The potency to inhibit the Bradykinin B1 receptors was determined for the example compounds of this invention in a cell-based fluorescent calcium-mobilisation assay. The assay measures the ability of example compounds to inhibit Bradykinin B1 receptor agonist-induced increase of intracellular free Ca^2+ in the cell line expressing B1 receptor. Specifically, calcium indicator-loaded cells are pre-incubated in the absence or presence of different concentrations of example compounds followed by the stimulation with a selective B1 receptor agonist peptide. The change of the intracellular Ca^2+ concentration is monitored with a fluorescent plate reader FLIPR (Molecular Devices).
Calcium Flux Assays (FLIPR) with Cells Expressing Bradykinin B1 Receptor Calcium Flux Assay (FLIPR) with Recombinant Cells for Bradykinin B1 Receptor Antagonist, Either in the Presence (hB1 IC50) or Absence (hB1 free IC50) of 0.1% Bovine Serum Albumin (BSA) in Assay Buffer
CHO-K1 cell line expressing human B1 receptor was purchased from Euroscreen (Gosselies, Belgium, with reference name hB1-D1). The cells were grown in Nutrient Mixture Ham's F12 (Sigma) containing 10% Foetal bovine serum (Sigma) and 400 μg/mL G418 (Sigma), 5 μg/mL puromycin (Sigma).
For the calcium flux assay, 80% confluent cells were detached from the culture vessels with Versene (Gibco), and seeded into 384-well plates (Cell binding Surface; Corning, N.Y.; #3683) at a density of 15,000 cells per well. Cells were seeded in a volume of 50 μL in medium without antibiotics and incubated overnight in a humidified atmosphere with 5% CO2 at 37° C. […] The calcium indicator loaded cells were incubated at 37° C. for 2 hrs. Extracellular dye was then removed and each well was filled with 45 μL of assay buffer. Cell plates were kept in dark until used. Example compounds were assayed at 8 concentrations in triplicate. Serial 10-fold dilutions in 100% DMSO were made at a 100-times higher concentration than the final concentration, and then diluted 1:10 in assay buffer. 5 μL of each diluted compound was added to the well of cell plates (yielding final concentration with 1% DMSO), and incubated for 30 min at 28° C. before the addition of B1 receptor agonist on the FLIPR instrument.
Agonist plates contained the agonist Lys-(Des-Arg)-Bradykinin (Bachem, Brackley) at 3.5×EC90 in assay buffer with 1% DMSO. The addition of agonist 20 μl per well to the assay plate was carried out on the FLIPR instrument while continuously monitoring Ca^2+-dependent fluorescence at 538 nm. A peptide antagonist Lys-(Des-Arg-Leu)-Bradykinin (Bachem, Brackley) at 20 μM was used to determine the full inhibition as control.
Peak fluorescence was used to determine the response to agonist obtained at each concentration of example compound by the following equation:
% Response=100*(RFU(example compound)−RFU(control)/(RFU(DMSO)−RFU(control)
Control=full inhibition by the peptide antagonist Lys-(Des-Arg-Leu)-Bradykinin at 20 μM
The response values were plotted against the logarithm of the compound concentrations. The compounds were tested in triplicates per plate and mean values were plotted in Excel XLfit to determine IC50 values, percentage of maximal inhibition and the Hill slopes.

[1] = presence of 0.1% BSA in assay buffer, read-out: hB1 IC50
[2] = absence of 0.1% BSA in assay buffer, read-out: hB1 free IC50

| IC50 [1] [nM] | IC50 [2] [nM] | Compound |
| --- | --- | --- |
| 16 | – | COc1ccc(-c2cc(F)c(NC(=O)C3CC3c3cccc(C)c3)cc2-c2nnn[nH]2)cc1OC (racemic) [Example 53, N-[5-Fluoro-3′,4′-dimethoxy-2-(1H-tetrazol-5-yl)biphenyl-4-yl]-2-(3-methylphenyl)cyclopro-panecarboxamide] |
| 209 | – | COc1ccc(-c2ccc(NC(=O)C3CC3c3ccccc3)cc2-c2nnn[nH]2)cc1OC (racemic) [Example 1, N[3′,4′-dimethoxy-2-(1H-tetrazol-5-yl)biphenyl-4-yl]-2-phenylcyclopropanecarboxamide] |
| 2120 | – | COc1ccc(-c2ccc(NC(=O)C3CC3c3cnn(C)c3)cc2-c2nnn[nH]2)cc1OC (racemic) [Example 2, N-[3′,4′-dimethoxy-2-(1H-tetrazol-5-yl)biphenyl-4-yl]-2-(1-methyl-1H-pyrazol-4-yl)cyclopropanecarbox-amide] |
| 28 | – | COCc1ccc(-c2ccc(NC(=O)C3CC3C3CCCCC3)cc2-c2nnn[nH]2)cc1C (racemic) [Example 33, 2-cyclohexyl-N-[4′-(methoxymethyl)-3′-methyl-2-(1H-tetrazol-5-yl)biphenyl-4-yl]cyclo-propanecarboxamide] |
| 662 | – | COc1ccc(-c2ccc(NC(=O)C3CC3c3ccc(C)cc3)cc2-c2nnn[nH]2)cc1 (racemic) [Example 36, N-[4′-methoxy-2-(1H-tetrazol-5-yl)biphenyl-4-yl]-2-(4-methylphenyl)cyclopro-panecarboxamide] |
| – | 1180 | O=C(Nc1ccc(-n2cc(C(F)(F)F)cn2)c(-c2nnn[nH]2)c1)C1CC1c1ccc(Cl)cc1 (racemic) [Example 46, 2-(4-Chlorophenyl)-N-{3-(1H-tetrazol-5-yl)-4-[4-(trifluoromethyl)-1H-pyrazol-1-yl]phenyl}cyclopropane-carboxamide] |
| – | 249 | Cc1cccc(C2CC2C(=O)Nc2ccc(-c3cc4ccccc4s3)c(-c3nnn[nH]3)c2)c1 (racemic) [Example 76, N-[4-(1-Benzothiophen-2-yl)-3-(1H-tetrazol-5-yl)phenyl]-2-(3-methylphenyl)cyclopro-panecarboxamide] |
| 341 | – | CCc1ccc(C2CC2C(=O)Nc2ccc(-c3ccc(OC)c(OC)c3)c(-c3nnn[nH]3)c2)cc1 (racemic) [Example 12, N-[3′,4′-dimethoxy-2-(1H-tetrazol-5-yl)biphenyl-4-yl]-2-(4-ethylphenyl)cyclopro-panecarboxamide] |
| 27 | – | CCOc1ccc(-c2ccc(NC(=O)C3CC3C3CCCCC3)cc2-c2nnn[nH]2)cc1OC (racemic) [Example 31, 2-cyclohexyl-N-[4′-ethoxy-3′-methoxy-2-(1H-tetrazol-5-yl)biphenyl-4-yl]cyclopropane-carboxamide] |
| 19 | – | COc1ccc(-c2ccc(NC(=O)C3CC3c3ccc(Cl)cc3)cc2-c2nnn[nH]2)cc1OC (racemic) [Example 9, 2-(4-chlorophenyl)-N-[3′,4′-dimethoxy-2-(1H-tetrazol-5-yl)biphenyl-4-yl]cyclo-propanecarboxamide] |
| 95 | – | COc1ccc(-c2ccc(NC(=O)C3CC3c3ccc(F)cc3)cc2-c2nnn[nH]2)cc1OC (racemic) [Example 11, N-[3′,4′-dimethoxy-2-(1H-tetrazol-5-yl)biphenyl-4-yl]-2-(4-fluorophenyl)cyclopro-panecarboxamide] |
| 124 | 24 | COc1ccc(-c2cc(F)c(NC(=O)C3CC3c3ccc(Cl)cc3)cc2-c2nnn[nH]2)cc1C (racemic) [Example 57, 2-(4-chlorophenyl)-N-[5-fluoro-4′-methoxy-3′-methyl-2-(1H-tetrazol-5-yl)biphenyl-4-yl]cyclo-propanecarboxamide] |
| 1030 | – | COc1ccc(-c2ccc(NC(=O)C3CC3C3CCCCC3)cc2-c2nnn[nH]2)cc1Cl (racemic) [Example 40, N-[3′-chloro-4′-methoxy-2-(1H-tetrazol-5-yl)biphenyl-4-yl]-2-cyclohexylcyclopropane-carboxamide] |
| 430 | – | COc1ccc(-c2cc(C)c(NC(=O)C3CC3C3CCCCC3)cc2-c2nnn[nH]2)cc1OC (racemic) [Example 67, 2-Cyclohexyl-N-[3′,4′ dimethoxy-5-methyl-2-(1H-tetrazol-5-yl)biphenyl-4-yl]cyclopro-panecarboxamide] |
| – | 458 | CC[C@@H]1CCN(c2ccc(NC(=O)C3CC3c3ccc(Cl)cc3)cc2-c2nnn[nH]2)C1=O (stereo partly drawn) [Example 75, 2-(4-Chlorophenyl)-N-{4-[(3R)-3-ethyl-2-oxopyrrolidin-1-yl]-3-(1H-tetrazol-5-yl)phenyl}cyclopropane-carboxamide] |
| 520 | – | COc1cncc(-c2ccc(NC(=O)C3CC3c3cccc(C)c3)cc2-c2nnn[nH]2)c1 (racemic) [Example 25, N-[4-(5-Methoxypyridin-3-yl)-3-(1H-tetrazol-5-yl)phenyl]-2-(3-methylphenyl)cyclopro-panecarboxamide] |
| 299 | – | COc1ccc(-c2cc(C)c(NC(=O)C3CC3C3CCCCC3)cc2-c2nnn[nH]2)cc1C (racemic) [Example 74, 2-Cyclohexyl-N-[4′-methoxy-3′,5-dimethyl-2-(1H-tetrazol-5-yl)biphenyl-4-yl]cyclopro-panecarboxamide] |
| 247 | – | CCOc1ccc(-c2cc(C)c(NC(=O)C3CC3C3CCCCC3)cc2-c2nnn[nH]2)cn1 (racemic) [Example 65, 2-Cyclohexyl-N-[4-(6-ethoxypyridin-3-yl)-2-methyl-5-(1H-tetrazol-5-yl)phenyl]cyclopropane-carboxamide] |
| 389 | – | CCOc1ccc(-c2ccc(NC(=O)C3CC3C3CCCCC3)cc2-c2nnn[nH]2)cn1 (racemic) [Example 20, 2-Cyclohexyl-N-[4-(6-ethoxypyridin-3-yl)-3-(1H-tetrazol-5-yl)phenyl]cyclopro-panecarboxamide] |
| 4070 | 2500 | CCOc1ccc(-c2ccc(NC(=O)C3CC3c3cnn(C)c3)cc2-c2nnn[nH]2)cn1 (racemic) [Example 81, N-[4-(6-ethoxypyridin-3-yl)-3-(1H-tetrazol-5-yl)phenyl]-2-(1-methyl-1H-pyrazol-4-yl)cyclopro-panecarboxamide] |
| 6460 | 71 | O=C(Nc1ccc(-c2ccc(C(F)(F)F)nc2)c(-c2nnn[nH]2)c1)C1CC1c1ccc(Cl)cc1 (racemic) [Example 79, 2-(4-chlorophenyl)-N-{3-(1H-tetrazol-5-yl)-4-[6-(trifluoro-methyl)pyridin-3-yl]phenyl}cyclopropane-carboxamide] |
| – | 2210 | O=C(Nc1ccc(-n2cc(C(F)(F)F)cn2)c(-c2nnn[nH]2)c1)C1CC1c1ccccc1 (racemic) [Example 43, 2-Phenyl-N-{3-(1H-tetrazol-5-yl)-4-[4-(trifluoromethyl)-1H-pyrazol-1-yl]phenyl}cyclopro-panecarboxamide] |
| 378 | – | COc1ccc(-c2ccc(NC(=O)C3CC3C3CCCCC3)cc2-c2nnn[nH]2)cc1C (single isomer, unassigned) [Example 35, 2-Cyclohexyl-N-[4′-methoxy-3′-methyl-2-(1H-tetrazol-5-yl)biphenyl-4-yl]cyclopropanecarbox-amide] |
| 101 | – | COc1ccc(-c2ccc(NC(=O)C3CC3c3ccccc3F)cc2-c2nnn[nH]2)cc1OC (racemic) [Example 3, N-[3′,4′-dimethoxy-2-(1H-tetrazol-5-yl)biphenyl-4-yl]-2-(2-fluorophenyl)cyclopro-panecarboxamide] |
